Measured values published in ChEMBL document CHEMBL1201862, “PubChem BioAssay data set” (2004).
Calls of active or inactive are those of the source.

Experiments:
[1] = target: T1, Eukaryotic translation initiation factor 2-alpha kinase 3 (Homo sapiens, UniProt Q9NZJ5); test: Counterscreen assay for PERK inhibitors: Dose response cell-based high throughput screening assay to measure inhibition of PERK at 6 hours. [Related pubchem assays: 1522, 1416 ]; format: functional
T1 sequence (Q9NZJ5 whole entry): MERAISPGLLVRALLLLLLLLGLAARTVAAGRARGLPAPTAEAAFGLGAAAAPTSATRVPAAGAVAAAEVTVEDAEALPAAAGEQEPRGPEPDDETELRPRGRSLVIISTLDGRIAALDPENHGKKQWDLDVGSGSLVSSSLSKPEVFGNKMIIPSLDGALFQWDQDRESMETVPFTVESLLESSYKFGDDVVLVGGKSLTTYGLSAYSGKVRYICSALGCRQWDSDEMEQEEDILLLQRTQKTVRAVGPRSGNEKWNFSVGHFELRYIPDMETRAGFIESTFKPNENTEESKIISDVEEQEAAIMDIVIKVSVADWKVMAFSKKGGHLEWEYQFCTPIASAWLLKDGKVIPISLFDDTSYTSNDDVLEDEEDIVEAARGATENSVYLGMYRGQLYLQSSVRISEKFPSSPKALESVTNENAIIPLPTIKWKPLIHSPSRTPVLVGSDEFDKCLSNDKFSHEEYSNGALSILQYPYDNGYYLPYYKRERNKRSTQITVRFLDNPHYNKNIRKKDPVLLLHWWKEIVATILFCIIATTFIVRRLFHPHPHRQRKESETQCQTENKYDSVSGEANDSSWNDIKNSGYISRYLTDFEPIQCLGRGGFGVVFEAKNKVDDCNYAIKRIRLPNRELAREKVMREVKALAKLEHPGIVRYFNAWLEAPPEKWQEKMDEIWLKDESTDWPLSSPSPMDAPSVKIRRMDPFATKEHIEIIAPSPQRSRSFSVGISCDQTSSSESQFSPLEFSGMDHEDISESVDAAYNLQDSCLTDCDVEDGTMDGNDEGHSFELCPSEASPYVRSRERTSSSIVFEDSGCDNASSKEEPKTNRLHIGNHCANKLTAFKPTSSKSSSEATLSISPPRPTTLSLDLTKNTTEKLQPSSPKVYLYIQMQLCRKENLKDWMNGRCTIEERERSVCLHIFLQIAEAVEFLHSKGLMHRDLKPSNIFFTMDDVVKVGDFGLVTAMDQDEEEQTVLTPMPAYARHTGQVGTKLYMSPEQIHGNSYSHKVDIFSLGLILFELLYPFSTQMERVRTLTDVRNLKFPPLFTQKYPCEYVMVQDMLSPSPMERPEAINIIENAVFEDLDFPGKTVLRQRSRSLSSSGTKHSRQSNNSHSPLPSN

[2] = target: T1, Eukaryotic translation initiation factor 2-alpha kinase 3; test: Dose response cell-based high-throughput screening assay to measure PERK inhibition. [Related pubchem assays: 1416 ]; format: functional
[3] = inhibitors of Bluetongue virus cytopathic effect, confirmation, arbovirus, BSR cells (AID 1250); format: functional;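 also: protection from viral cytopathic effect measured as cell viability by ATP luminescence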
[4] = target: T2, Alkaline phosphatase, tissue-nonspecific isozyme (Homo sapiens, UniProt P05186)
T2 sequence (P05186 whole entry): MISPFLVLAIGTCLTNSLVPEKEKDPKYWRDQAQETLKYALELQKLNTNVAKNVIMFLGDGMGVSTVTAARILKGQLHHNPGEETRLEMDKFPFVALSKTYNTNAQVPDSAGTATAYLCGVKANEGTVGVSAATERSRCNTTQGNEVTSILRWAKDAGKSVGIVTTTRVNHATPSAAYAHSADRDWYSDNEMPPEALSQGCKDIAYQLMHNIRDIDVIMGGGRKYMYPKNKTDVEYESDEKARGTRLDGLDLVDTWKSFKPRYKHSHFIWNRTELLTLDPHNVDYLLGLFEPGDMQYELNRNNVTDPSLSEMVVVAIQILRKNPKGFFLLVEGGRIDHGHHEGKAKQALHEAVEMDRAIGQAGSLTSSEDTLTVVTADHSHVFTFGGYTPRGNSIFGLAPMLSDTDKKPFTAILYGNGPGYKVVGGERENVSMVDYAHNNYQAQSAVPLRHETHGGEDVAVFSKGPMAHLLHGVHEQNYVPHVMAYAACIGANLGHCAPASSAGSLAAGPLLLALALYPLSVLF

[5] = target: T3, RNA-binding protein pos-1 (Caenorhabditis elegans, UniProt G5EF15); test: inhibitors of POS-1/mex-3 RNA binding, dose response, biochemical, fluorescence polarization (AID 1964);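 also: purified POS-1 fused to maltose binding protein made in E. coli; potency of compounds blocking POS-1 binding to fluorescent RNA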
T3 sequence (G5EF15 whole entry): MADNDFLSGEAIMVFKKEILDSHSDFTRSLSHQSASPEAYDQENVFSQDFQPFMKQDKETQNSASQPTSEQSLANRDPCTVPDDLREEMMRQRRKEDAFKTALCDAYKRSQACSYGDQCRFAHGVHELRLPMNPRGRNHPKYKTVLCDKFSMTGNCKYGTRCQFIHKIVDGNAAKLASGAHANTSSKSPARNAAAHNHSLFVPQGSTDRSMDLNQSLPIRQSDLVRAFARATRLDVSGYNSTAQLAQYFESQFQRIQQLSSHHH

[6] = target: T4, Eukaryotic translation initiation factor 4H (Homo sapiens, UniProt Q15056); test: eIF4H inhibition in translation initiation, SAR follow-up (AID 435011); format: functional
[7] = target: T5, Polyadenylate-binding protein 1 (Homo sapiens, UniProt P11940); test: PABP inhibition in translation initiation, SAR follow-up (AID 435018); format: functional
[8] = target: T5, Polyadenylate-binding protein 1; test: PABP poly(A) RNA binding inhibitors, primary screen, biochemical, fluorescence polarization, uHTS (AID 2014)
[9] = target: T4, Eukaryotic translation initiation factor 4H; test: human eIF4H binding inhibitors, primary screen, translation initiation inhibitor project, biochemical, uHTS, fluorescence polarization (AID 2012)
[10] = system: HT-1080; test: cytotoxicity in HT1080 fibrosarcoma cells, cell-based, fluorescence readout (AID 620); format: functional; details: Homo sapiens
[11] = target: T6, Luciferin 4-monooxygenase (Photinus pyralis, UniProt P08659); test: Counter Screen for Luciferase-based Assay Positives. [Related pubchem assays: 620, 618, 411 ]
[12] = target: T7, Neuropeptide Y receptor type 2 (Homo sapiens, UniProt P49146); format: functional, cell-based;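 also: HEK293 cells expressing the receptor and a CNG channel; stimulus was NPY near EC95 followed by isoproterenol to raise cAMP; antagonist potency measured as restoring cAMP signal that NPY suppresses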
T7 sequence (P49146 whole entry): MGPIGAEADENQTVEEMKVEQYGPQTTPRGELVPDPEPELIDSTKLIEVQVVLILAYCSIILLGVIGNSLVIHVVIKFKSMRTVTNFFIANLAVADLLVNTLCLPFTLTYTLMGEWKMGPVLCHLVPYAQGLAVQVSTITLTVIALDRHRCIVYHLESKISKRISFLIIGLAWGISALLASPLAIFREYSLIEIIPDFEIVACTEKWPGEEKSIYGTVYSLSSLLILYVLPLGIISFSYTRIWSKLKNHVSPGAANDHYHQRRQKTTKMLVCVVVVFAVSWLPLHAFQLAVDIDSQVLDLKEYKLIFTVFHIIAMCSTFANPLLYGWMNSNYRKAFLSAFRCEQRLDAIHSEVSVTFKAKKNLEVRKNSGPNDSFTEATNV

[13] = Luminescence Cell-Based Dose Confirmation HTS to Identify Inhibitors of Platelet Dense Granule Release. [Related pubchem assays: 1663 (Primary HTS), 1678 (Summary of Project)]; format: functional
[14] = target: T6, Luciferin 4-monooxygenase; test: firefly luciferase enzyme inhibitors, dose response, biochemical, luminescence (AID 1891)
[15] = system: H9c2; test: cells; format: functional, cell-based; details: Rattus norvegicus, H9c2, Myocardium;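 also: confirmatory concentration-response retest of ultra-high-throughput screening hits for modulation of myocardial damage; cell death induced by hydrogen peroxide oxidative stress; compound pretreatment for 60 min then peroxide exposure for 2 h; potency is for protecting the cells against peroxide damage rather than for killing them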
[16] = target: T8, Neuropeptide Y receptor type 1 (Homo sapiens, UniProt P25929); format: functional;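 also: HEK293 cells with a CNG channel challenged with NPY then isoproterenol; potency as antagonist that reverses NPY suppression of cAMP signal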
T8 sequence (P25929 whole entry): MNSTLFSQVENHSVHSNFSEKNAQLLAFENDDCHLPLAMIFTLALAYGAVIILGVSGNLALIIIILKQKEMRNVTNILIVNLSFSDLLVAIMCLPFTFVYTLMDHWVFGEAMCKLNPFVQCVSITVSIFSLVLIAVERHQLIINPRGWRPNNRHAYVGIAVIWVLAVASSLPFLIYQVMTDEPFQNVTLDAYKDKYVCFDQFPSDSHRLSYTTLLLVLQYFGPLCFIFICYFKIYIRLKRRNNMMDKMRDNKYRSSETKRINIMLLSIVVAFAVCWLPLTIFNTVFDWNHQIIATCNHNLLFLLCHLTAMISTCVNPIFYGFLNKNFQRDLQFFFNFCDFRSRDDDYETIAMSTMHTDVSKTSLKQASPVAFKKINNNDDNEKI

[17] = target: T9, Apoptotic protease-activating factor 1 (Homo sapiens, UniProt O14727); format: functional
T9 sequence (O14727 whole entry): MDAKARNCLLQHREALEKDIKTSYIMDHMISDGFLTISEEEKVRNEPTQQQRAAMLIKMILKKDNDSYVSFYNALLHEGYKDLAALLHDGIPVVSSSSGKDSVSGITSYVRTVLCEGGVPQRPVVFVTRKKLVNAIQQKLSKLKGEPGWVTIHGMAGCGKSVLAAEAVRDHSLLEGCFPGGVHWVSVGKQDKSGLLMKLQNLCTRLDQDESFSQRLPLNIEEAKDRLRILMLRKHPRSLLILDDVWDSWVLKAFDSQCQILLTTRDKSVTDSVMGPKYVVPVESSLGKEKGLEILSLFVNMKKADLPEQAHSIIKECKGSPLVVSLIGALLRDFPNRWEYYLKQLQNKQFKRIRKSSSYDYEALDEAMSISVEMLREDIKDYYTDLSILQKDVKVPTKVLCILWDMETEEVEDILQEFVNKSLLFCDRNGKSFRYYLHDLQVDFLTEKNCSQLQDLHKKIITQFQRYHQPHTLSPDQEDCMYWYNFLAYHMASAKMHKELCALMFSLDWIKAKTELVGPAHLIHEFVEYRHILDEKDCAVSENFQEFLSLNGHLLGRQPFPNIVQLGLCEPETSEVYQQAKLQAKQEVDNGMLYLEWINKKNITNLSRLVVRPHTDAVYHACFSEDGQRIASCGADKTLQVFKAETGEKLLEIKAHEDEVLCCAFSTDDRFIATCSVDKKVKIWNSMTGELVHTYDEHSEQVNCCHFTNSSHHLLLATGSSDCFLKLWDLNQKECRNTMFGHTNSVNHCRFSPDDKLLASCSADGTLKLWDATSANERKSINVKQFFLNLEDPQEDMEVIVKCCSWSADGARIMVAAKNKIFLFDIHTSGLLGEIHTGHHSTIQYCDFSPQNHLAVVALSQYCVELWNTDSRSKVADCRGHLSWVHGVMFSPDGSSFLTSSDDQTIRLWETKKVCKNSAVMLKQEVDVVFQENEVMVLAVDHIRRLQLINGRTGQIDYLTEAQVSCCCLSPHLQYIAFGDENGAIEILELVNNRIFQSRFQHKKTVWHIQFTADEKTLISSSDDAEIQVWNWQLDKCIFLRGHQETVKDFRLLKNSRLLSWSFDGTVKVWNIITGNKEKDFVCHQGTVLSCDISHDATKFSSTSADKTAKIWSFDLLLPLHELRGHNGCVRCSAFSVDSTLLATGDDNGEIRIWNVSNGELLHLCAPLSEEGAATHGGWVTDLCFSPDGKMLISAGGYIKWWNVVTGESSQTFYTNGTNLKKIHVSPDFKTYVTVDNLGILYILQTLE

[18] = system: HeLa; test: HeLa cell cytotoxicity, dose response, cytotoxicity control, 24 h, cherry-picked samples (AID 504726); format: functional, cell-based; details: Homo sapiens;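 also: potency for cytotoxicity as loss of luminescence signal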

T5 sequence (P11940 whole entry): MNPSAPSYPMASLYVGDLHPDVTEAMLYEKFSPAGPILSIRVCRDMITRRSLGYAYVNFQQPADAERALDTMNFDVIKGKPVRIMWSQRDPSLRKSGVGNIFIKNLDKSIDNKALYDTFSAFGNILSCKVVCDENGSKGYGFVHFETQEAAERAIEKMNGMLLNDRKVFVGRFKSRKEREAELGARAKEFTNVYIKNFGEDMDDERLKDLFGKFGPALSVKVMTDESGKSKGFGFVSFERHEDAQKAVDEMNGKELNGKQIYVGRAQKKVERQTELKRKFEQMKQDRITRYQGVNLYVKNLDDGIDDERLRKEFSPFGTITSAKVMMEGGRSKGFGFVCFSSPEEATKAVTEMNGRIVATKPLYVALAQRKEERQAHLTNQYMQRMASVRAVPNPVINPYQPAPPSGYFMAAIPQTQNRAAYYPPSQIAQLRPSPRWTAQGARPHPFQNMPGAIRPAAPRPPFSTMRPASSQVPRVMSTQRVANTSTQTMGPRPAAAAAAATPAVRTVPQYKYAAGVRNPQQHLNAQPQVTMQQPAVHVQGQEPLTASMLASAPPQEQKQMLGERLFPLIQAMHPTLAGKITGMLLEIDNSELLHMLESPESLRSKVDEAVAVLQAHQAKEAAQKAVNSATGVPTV
T6 sequence (P08659 whole entry): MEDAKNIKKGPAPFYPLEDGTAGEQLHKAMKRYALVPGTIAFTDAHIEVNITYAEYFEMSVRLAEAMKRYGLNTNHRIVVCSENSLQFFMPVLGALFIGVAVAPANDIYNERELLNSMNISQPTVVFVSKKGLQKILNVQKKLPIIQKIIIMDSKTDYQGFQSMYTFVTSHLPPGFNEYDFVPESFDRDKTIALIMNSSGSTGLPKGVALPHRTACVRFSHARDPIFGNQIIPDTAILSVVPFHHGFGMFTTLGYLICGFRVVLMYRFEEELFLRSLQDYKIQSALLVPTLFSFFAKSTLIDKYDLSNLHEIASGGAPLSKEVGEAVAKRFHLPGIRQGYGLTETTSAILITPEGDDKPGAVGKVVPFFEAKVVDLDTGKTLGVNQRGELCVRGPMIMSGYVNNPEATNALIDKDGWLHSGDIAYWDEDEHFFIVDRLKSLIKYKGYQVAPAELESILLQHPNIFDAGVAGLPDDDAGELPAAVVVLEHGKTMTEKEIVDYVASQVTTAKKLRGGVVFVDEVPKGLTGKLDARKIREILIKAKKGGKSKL

## O=C(NNc1nc2ccccc2s1)C1CC1
[1]
  EC50: > 55.7 µM (not active)
[2]
  EC50: > 55.7 µM (not active)

## COc1ccc(-c2cc(-c3ccc(Br)cc3)nc3ncnn23)cc1OC
[3]
  IC50: 52.8 µM (active)

## Oc1cc(CSc2nnnn2-c2ccccc2)nc(Nc2ccc(F)cc2)n1
[3]
  IC50: 38.2 µM (active)

## Nc1ccc(S(=O)(=O)NNC(=O)C(=O)NNc2ccccn2)cc1
[4]
  EC50: 26.5 µM (active)
[5]
  EC50: 137 µM (active)

## Cc1ccc(NC(=O)CN2C(=O)N/C(=C/c3ccccc3OCc3cccc(C(=O)O)c3)C2=O)cc1
[6]
  IC50: 8.36 µM (active)
[7]
  IC50: > 100 µM (inactive)
[8]
  IC50: > 100 µM (inactive)
[9]
  IC50: 11.1 µM (active)

## O=C(CCCC(=O)N/N=C/c1ccccc1C(=O)O)N/N=C/c1ccccc1C(=O)O
[1]
  EC50: > 55.7 µM (not active)
[2]
  EC50: > 55.7 µM (not active)

## Cc1cc(C(=O)NNC(=O)CCCCC(=O)NNC(=O)c2cc(C)n[nH]2)[nH]n1
[4]
  EC50: 15.5 µM (active)

## COC(=O)c1ccc(-c2nc3cc(N)ccc3o2)cc1
[10]
  EC50: > 50 µM (not active)
[11]
  EC50: 0.2 µM (active)

## Cc1ccc(-c2nn3c(C)nnc3c3ccccc23)cc1S(=O)(=O)NC(C)c1ccccc1 (configuration not stated)
[12]
  IC50: 10.4 µM (not active)
[13]
  EC50: > 112 µM (not active)
[14]
  EC50: > 112 µM (not active)
[15]
  IC50: 35.8 µM (inactive)
[16]
  IC50: 20.3 µM (not active)
[17]
  IC50: 7.48 µM (active)

## NNc1nnc2c3cc(F)ccc3n(Cc3ccccc3)c2n1
[18]
  AC50: 217 µM (active)
